Source: US10294272B2, “Peptides with antagonistic activities against natural CXCR4” (Pharis Biotec GmbH, priority 2013, dated 2019)
Positions of bridges follow the written chain, without caps; N, C: chain ends. Residues, ends and D or L forms follow the SMILES beside them. Chains are numbered I, II in the order given. No end group written: not given here.

System: X4 tropic HIV-1 NL4-3
Conditions: blocking X4 tropic HIV-1 NL4-3 infection
Protocol: Antiviral screening was performed using the X4 HIV-1 NL4-3 molecular clone.
HIV-1, HIV-2 and SIV molecular clones differing in coreceptor tropism were generated by transient transfection of 293T cells with proviral DNA by the calcium phosphate method (CalPhos™ Mammalian Transfection Kit, Clon-tech). After overnight incubation, the transfection mixture was replaced by DMEM medium supplemented with 10% FCS, and virus stocks were harvested 48 hrs post-transfection. Subsequently, the culture supernatant was centrifuged for 5 min at 3000 rpm to remove cell debris. The resulting virus stock was quantified by p24 (HIV) or p27 (SIV) antigen ELISA. Virus stocks were either used immediately or stored in aliquots at −80° C.
TZM-bl reporter cells containing the LacZ reporter gene under the control of the HIV-1 promoter were seeded in 96-well F-bottom microtiter plates (Greiner Bio-One). On the following day, the cells were preincubated with various dilutions of the peptide of SEQ ID NO 16 or its derivatives for 1 hour and subsequently infected with HIV-1, HIV-2, and SIV. Infection rates were determined after 2 days using the one-step Tropix Gal-Screen Kit, as recommended by the manufacturer.

Row | Molecule | IC50
1 | IVRYTKCVPQVS [408I-419 K414C, IVRYTKCVPQVS] | 5870 nM
2 | IVRYTKKVPQCS [408I-419 V418C, IVRYTKKVPQCS] | 3690 nM
3 | LVRYAKKV [408-415-T412A, LVRYAKKV] | 11200 nM
4 | LVRYTKKVPQV [Derivative 408-418, LVRYTKKVPQV] | 26800 nM
5 | CC[C@H](C)[C@H](N)C(=O)N[C@H](C(=O)N[C@@H](CCCNC(=N)N)C(=O)N[C@@H](Cc1c[nH]c2ccccc12)C(=O)N[C@H](C(=O)N[C@@H](CCCCN)C(=O)N[C@@H](CCCCN)C(=O)N[C@H](C(=O)N1CCC[C@H]1C(=O)N[C@@H](CCC(N)=O)C(=O)N[C@H](C(=O)N[C@@H](CSSC[C@H](NC(=O)[C@@H](NC(=O)[C@H](CCC(N)=O)NC(=O)[C@@H]1CCCN1C(=O)[C@@H](NC(=O)[C@H](CCCCN)NC(=O)[C@H](CCCCN)NC(=O)[C@@H](NC(=O)[C@H](Cc1c[nH]c2ccccc12)NC(=O)[C@H](CCCNC(=N)N)NC(=O)[C@@H](NC(=O)[C@@H](N)[C@@H](C)CC)C(C)C)[C@@H](C)O)C(C)C)C(C)C)C(=O)O)C(=O)O)C(C)C)C(C)C)[C@@H](C)O)C(C)C [408I-419 WC01_x2, (IVRWTKKVPQVC)2] (I: H-IVRWTKKVPQVC-OH / II: H-IVRWTKKVPQVC-OH; disulfide I:12-II:12; N-terminus and C-terminus assumed) | 400 nM
6 | IVHYTKKVPQVS [408I-419 R410H, IVHYTKKVPQVS] | > 100000 nM
7 | IVRWTKKVPQVC [408I-419 WC01, IVRWTKKVPQVC] | 1650 nM
8 | IVRWSKKVCQVS [408I-419 WSC03, IVRWSKKVCQVS] | 1510 nM
9 | IVRYSKKVPQVS [408I-419 T412S, IVRYSKKVPQVS] | 2090 nM
10 | LVRYTKKVPQVSTPT [Derivative 408-422, LVRYTKKVPQVSTPT] | 13400 nM
11 | LLVRYTKKVPQVS [Derivative 407-419, LLVRYTKKVPQVS] | 11100 nM
12 | CC[C@H](C)[C@H](N)C(=O)N[C@H](C(=O)N[C@@H](CCCNC(=N)N)C(=O)N[C@@H](Cc1c[nH]c2ccccc12)C(=O)N[C@H](C(=O)N[C@@H](CSSC[C@H](NC(=O)[C@@H](NC(=O)[C@H](Cc1c[nH]c2ccccc12)NC(=O)[C@H](CCCNC(=N)N)NC(=O)[C@@H](NC(=O)[C@@H](N)[C@@H](C)CC)C(C)C)[C@@H](C)O)C(=O)N[C@@H](CCCCN)C(=O)N[C@H](C(=O)N1CCC[C@H]1C(=O)N[C@@H](CCC(N)=O)C(=O)N[C@H](C(=O)N[C@@H](CO)C(=O)O)C(C)C)C(C)C)C(=O)N[C@@H](CCCCN)C(=O)N[C@H](C(=O)N1CCC[C@H]1C(=O)N[C@@H](CCC(N)=O)C(=O)N[C@H](C(=O)N[C@@H](CO)C(=O)O)C(C)C)C(C)C)[C@@H](C)O)C(C)C [408I-419 WC02 x2, (IVRWTCKVPQVS)2] (I: H-IVRWTCKVPQVS-OH / II: H-IVRWTCKVPQVS-OH; disulfide I:6-II:6; N-terminus and C-terminus assumed) | 320 nM
13 | CC[C@H](C)[C@H](N)C(=O)N[C@H](C(=O)N[C@@H](CCCNC(=N)N)C(=O)N[C@@H](Cc1c[nH]c2ccccc12)C(=O)N[C@@H](CO)C(=O)N[C@@H](CCCCN)C(=O)N[C@@H](CCCCN)C(=O)N[C@H](C(=O)N1CCC[C@H]1C(=O)N[C@@H](CSSC[C@H](NC(=O)[C@@H]1CCCN1C(=O)[C@@H](NC(=O)[C@H](CCCCN)NC(=O)[C@H](CCCCN)NC(=O)[C@H](CO)NC(=O)[C@H](Cc1c[nH]c2ccccc12)NC(=O)[C@H](CCCNC(=N)N)NC(=O)[C@@H](NC(=O)[C@@H](N)[C@@H](C)CC)C(C)C)C(C)C)C(=O)N[C@H](C(=O)N[C@@H](CO)C(=O)O)C(C)C)C(=O)N[C@H](C(=O)N[C@@H](CO)C(=O)O)C(C)C)C(C)C)C(C)C [408I-419 WSC02 x2, (IVRWSKKVPCVS)2] (I: H-IVRWSKKVPCVS-OH / II: H-IVRWSKKVPCVS-OH; disulfide I:10-II:10) | 120 nM
14 | LVRYTKKVPQ [Derivative 408-417, LVRYTKKVPQ] | 19800 nM
15 | IVRWSKKVPCVS [408I-419 WSC02, IVRWSKKVPCVS] | 310 nM
16 | IVKYTKKVPQVS [408I-419 R410K, IVKYTKKVPQVS] | > 100000 nM
17 | LVRYTKKV [Derivative 408-415, LVRYTKKV] | 25700 nM
18 | IVRFTKKVPQVS [408I-419 Y411F, IVRFTKKVPQVS] | 3890 nM
19 | IVRWCKKVPQVS [408I-419 WC03, IVRWCKKVPQVS] | 1820 nM
20 | CC[C@H](C)[C@H](N)C(=O)N[C@H](C(=O)N[C@@H](CCCNC(=N)N)C(=O)N[C@@H](Cc1c[nH]c2ccccc12)C(=O)N[C@@H](CO)C(=O)N[C@@H](CCCCN)C(=O)N[C@@H](CCCCN)C(=O)N[C@H](C(=O)N1CCC[C@H]1C(=O)N[C@@H](CCC(N)=O)C(=O)N[C@@H](CSSC[C@H](NC(=O)[C@H](CCC(N)=O)NC(=O)[C@@H]1CCCN1C(=O)[C@@H](NC(=O)[C@H](CCCCN)NC(=O)[C@H](CCCCN)NC(=O)[C@H](CO)NC(=O)[C@H](Cc1c[nH]c2ccccc12)NC(=O)[C@H](CCCNC(=N)N)NC(=O)[C@@H](NC(=O)[C@@H](N)[C@@H](C)CC)C(C)C)C(C)C)C(=O)N[C@@H](CO)C(=O)O)C(=O)N[C@@H](CO)C(=O)O)C(C)C)C(C)C [408I-419 WSC01 x2, (IVRWSKKVPQCS)2] (I: H-IVRWSKKVPQCS-OH / II: H-IVRWSKKVPQCS-OH; disulfide I:11-II:11; N-terminus and C-terminus assumed) | 180 nM
21 | LVRYTKKVPQVS [Derivative 408-419, LVRYTKKVPQVS] | 5490 nM
22 | IVRYSKKVPQC [408I-418 SC, IVRYSKKVPQC] | 2940 nM
23 | CC[C@H](C)[C@H](N)C(=O)N[C@H](C(=O)N[C@@H](CCCNC(=N)N)C(=O)N[C@@H](Cc1c[nH]c2ccccc12)C(=O)N[C@@H](CSSC[C@H](NC(=O)[C@H](Cc1c[nH]c2ccccc12)NC(=O)[C@H](CCCNC(=N)N)NC(=O)[C@@H](NC(=O)[C@@H](N)[C@@H](C)CC)C(C)C)C(=O)N[C@@H](CCCCN)C(=O)N[C@@H](CCCCN)C(=O)N[C@H](C(=O)N1CCC[C@H]1C(=O)N[C@@H](CCC(N)=O)C(=O)N[C@H](C(=O)N[C@@H](CO)C(=O)O)C(C)C)C(C)C)C(=O)N[C@@H](CCCCN)C(=O)N[C@@H](CCCCN)C(=O)N[C@H](C(=O)N1CCC[C@H]1C(=O)N[C@@H](CCC(N)=O)C(=O)N[C@H](C(=O)N[C@@H](CO)C(=O)O)C(C)C)C(C)C)C(C)C [408I-419 WC03 x2, (IVRWCKKVPQVS)2] (I: H-IVRWCKKVPQVS-OH / II: H-IVRWCKKVPQVS-OH; disulfide I:5-II:5; N-terminus and C-terminus assumed) | 600 nM
24 | IVRWTCKVPQVS [408I-419 WCO2, IVRWTCKVPQVS] | 2100 nM
25 | LARYTKKV [408-415-V409A, LARYTKKV] | 32900 nM
26 | CC[C@H](C)[C@H](N)C(=O)N[C@H](C(=O)N[C@@H](CCCNC(=N)N)C(=O)N[C@@H](Cc1ccc(O)cc1)C(=O)N[C@@H](CO)C(=O)N[C@@H](CCCCN)C(=O)N[C@@H](CCCCN)C(=O)N[C@H](C(=O)N1CCC[C@H]1C(=O)N[C@@H](CCC(N)=O)C(=O)N[C@@H](CSSC[C@H](NC(=O)[C@H](CCC(N)=O)NC(=O)[C@@H]1CCCN1C(=O)[C@@H](NC(=O)[C@H](CCCCN)NC(=O)[C@H](CCCCN)NC(=O)[C@H](CO)NC(=O)[C@H](Cc1ccc(O)cc1)NC(=O)[C@H](CCCNC(=N)N)NC(=O)[C@@H](NC(=O)[C@@H](N)[C@@H](C)CC)C(C)C)C(C)C)C(=O)O)C(=O)O)C(C)C)C(C)C [408I-418 SC x2, (IVRYSKKVPQC)2] (I: H-IVRYSKKVPQC-OH / II: H-IVRYSKKVPQC-OH; disulfide I:11-II:11; N-terminus and C-terminus assumed) | 390 nM
27 | LVRYTKKVPQVST [Derivative 408-420, LVRYTKKVPQVST] | 15300 nM
28 | IVRWTKKVPQVS [408I-419 Y411W, IVRWTKKVPQVS] | 1540 nM
29 | CC[C@H](C)[C@H](N)C(=O)N[C@H](C(=O)N[C@@H](CCCNC(=N)N)C(=O)N[C@@H](Cc1ccc(O)cc1)C(=O)N[C@H](C(=O)N[C@@H](CCCCN)C(=O)N[C@@H](CSSC[C@H](NC(=O)[C@H](CCCCN)NC(=O)[C@@H](NC(=O)[C@H](Cc1ccc(O)cc1)NC(=O)[C@H](CCCNC(=N)N)NC(=O)[C@@H](NC(=O)[C@@H](N)[C@@H](C)CC)C(C)C)[C@@H](C)O)C(=O)N[C@H](C(=O)N1CCC[C@H]1C(=O)N[C@@H](CCC(N)=O)C(=O)N[C@H](C(=O)N[C@@H](CO)C(=O)O)C(C)C)C(C)C)C(=O)N[C@H](C(=O)N1CCC[C@H]1C(=O)N[C@@H](CCC(N)=O)C(=O)N[C@H](C(=O)N[C@@H](CO)C(=O)O)C(C)C)C(C)C)[C@@H](C)O)C(C)C [408I-419 K414C x2, (IVRYTKCVPQVS)2] (I: H-IVRYTKCVPQVS-OH / II: H-IVRYTKCVPQVS-OH; disulfide I:7-II:7; N-terminus and C-terminus assumed) | 1050 nM
30 | CC[C@H](C)[C@H](N)C(=O)N[C@H](C(=O)N[C@@H](CCCNC(=N)N)C(=O)N[C@@H](Cc1ccc(O)cc1)C(=O)N[C@H](C(=O)N[C@@H](CCCCN)C(=O)N[C@@H](CCCCN)C(=O)N[C@H](C(=O)N1CCC[C@H]1C(=O)N[C@@H](CCC(N)=O)C(=O)N[C@@H](CSSC[C@H](NC(=O)[C@H](CCC(N)=O)NC(=O)[C@@H]1CCCN1C(=O)[C@@H](NC(=O)[C@H](CCCCN)NC(=O)[C@H](CCCCN)NC(=O)[C@@H](NC(=O)[C@H](Cc1ccc(O)cc1)NC(=O)[C@H](CCCNC(=N)N)NC(=O)[C@@H](NC(=O)[C@@H](N)[C@@H](C)CC)C(C)C)[C@@H](C)O)C(C)C)C(=O)N[C@@H](CO)C(=O)O)C(=O)N[C@@H](CO)C(=O)O)C(C)C)[C@@H](C)O)C(C)C [408I-419 V418C x2, (IVRYTKKVPQCS)2] (I: H-IVRYTKKVPQCS-OH / II: H-IVRYTKKVPQCS-OH; disulfide I:11-II:11; N-terminus and C-terminus assumed) | 460 nM
